Tested on: 624824-186-R-J3-PDC multicell spheroids, viability
Test: Anticancer human tumor 624824-186-R-J3-PDC patient-derived colon adenocarcinoma cell line growth inhibition [PI3K]
Settings: for IC50: curve of first compound; for viability, T/C: stronger effect = lower value
Procedure, shortened: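 Complex 3D spheroids (cancer cells + endothelial HUVEC + mesenchymal stem cells); drug pairs of targeted agent x inavolisib/alpelisib/duvelisib/copanlisib; half-log series from ~Cmax, max 10 microM if Cmax unknown; endpoint viability.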
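Note: spheroids exposed to agents for seven days before luminescence read.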
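Throughout, for viability, T/C: luminescent signal used as a stand-in for spheroid viability; percent viability relative to DMSO vehicle control wells taken as 100%.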

Q: With CC(C)NCC(C(=O)N1CCN(c2ncnc3c2C(C)CC3O)CC1)c1ccc(Cl)cc1 (configuration not stated) + COc1c(OCCCN2CCOCC2)ccc2c3n(c(=NC(=O)c4cnc(N)nc4)nc12)CCN3 as the compound, how does the IC50 (second compound 0.00316 µM) read?
A: Its IC50 is over 10 µM.

Q: What about the IC50 (second compound 0.01 µM) of the same compound?
A: The IC50 was over 10 µM.

Q: And the IC50 (second compound 0.0316 µM)?
A: The IC50 was 7.59 µM.

Q: What about the IC50 (second compound 0.1 µM) of the same compound?
A: The IC50 was 4.86 µM.

Q: And the IC50 (second compound 0.316 µM)?
A: Its IC50 is 0.0351 µM.

Q: What about the IC50 (second compound 1 µM) of the same compound?
A: Its IC50 is under 0.0316 µM.

Q: And the viability, T/C (second compound 0.00316 µM, first compound 0.0316 µM)?
A: Its viability, T/C is 101%.

Q: What about the viability, T/C (second compound 0.00316 µM, first compound 0.1 µM) of the same compound?
A: Its viability, T/C is 103%.

Q: What about the viability, T/C (second compound 0.00316 µM, first compound 0.316 µM) of the same compound?
A: Its viability, T/C is 106%.

Q: And the viability, T/C (second compound 0.00316 µM, first compound 1 µM)?
A: Its viability, T/C is 76.1%.

Q: What about the viability, T/C (second compound 0.00316 µM, first compound 3.16 µM) of the same compound?
A: The viability, T/C was 68.3%.

Q: And the viability, T/C (second compound 0.00316 µM, first compound 10 µM)?
A: The viability, T/C was 56.4%.

Q: What about the viability, T/C (second compound 0.01 µM, first compound 0.0316 µM) of the same compound?
A: The viability, T/C was 109%.

Q: What about the viability, T/C (second compound 0.01 µM, first compound 0.1 µM) of the same compound?
A: The viability, T/C was 97.1%.

Q: What about the viability, T/C (second compound 0.01 µM, first compound 0.316 µM) of the same compound?
A: The viability, T/C was 101%.

Q: And the viability, T/C (second compound 0.01 µM, first compound 1 µM)?
A: The viability, T/C was 82.2%.

Q: What about the viability, T/C (second compound 0.01 µM, first compound 3.16 µM) of the same compound?
A: Its viability, T/C is 64.5%.

Q: What about the viability, T/C (second compound 0.01 µM, first compound 10 µM) of the same compound?
A: The viability, T/C was 52.7%.

Q: What about the viability, T/C (second compound 0.0316 µM, first compound 0.0316 µM) of the same compound?
A: The viability, T/C was 104%.

Q: And the viability, T/C (second compound 0.0316 µM, first compound 0.1 µM)?
A: Its viability, T/C is 110%.

Q: What about the viability, T/C (second compound 0.0316 µM, first compound 0.316 µM) of the same compound?
A: The viability, T/C was 85.6%.

Q: And the viability, T/C (second compound 0.0316 µM, first compound 1 µM)?
A: The viability, T/C was 84.8%.

Q: What about the viability, T/C (second compound 0.0316 µM, first compound 3.16 µM) of the same compound?
A: The viability, T/C was 60%.

Q: And the viability, T/C (second compound 0.0316 µM, first compound 10 µM)?
A: Its viability, T/C is 46.7%.

Q: And the viability, T/C (second compound 0.1 µM, first compound 0.0316 µM)?
A: The viability, T/C was 73.2%.

Q: And the viability, T/C (second compound 0.1 µM, first compound 0.1 µM)?
A: The viability, T/C was 75%.

Q: What about the viability, T/C (second compound 0.1 µM, first compound 0.316 µM) of the same compound?
A: Its viability, T/C is 66.2%.

Q: What about the viability, T/C (second compound 0.1 µM, first compound 1 µM) of the same compound?
A: The viability, T/C was 60.8%.

Q: What about the viability, T/C (second compound 0.1 µM, first compound 3.16 µM) of the same compound?
A: Its viability, T/C is 57.4%.

Q: And the viability, T/C (second compound 0.1 µM, first compound 10 µM)?
A: The viability, T/C was 41.4%.

Q: What about the viability, T/C (second compound 0.316 µM, first compound 0.0316 µM) of the same compound?
A: The viability, T/C was 47.9%.

Q: What about the viability, T/C (second compound 0.316 µM, first compound 0.1 µM) of the same compound?
A: Its viability, T/C is 49%.

Q: And the viability, T/C (second compound 0.316 µM, first compound 0.316 µM)?
A: Its viability, T/C is 46.5%.

Q: And the viability, T/C (second compound 0.316 µM, first compound 1 µM)?
A: Its viability, T/C is 38.5%.

Q: What about the viability, T/C (second compound 0.316 µM, first compound 3.16 µM) of the same compound?
A: The viability, T/C was 37.5%.

Q: And the viability, T/C (second compound 0.316 µM, first compound 10 µM)?
A: The viability, T/C was 33.7%.

Q: And the viability, T/C (second compound 1 µM, first compound 0.0316 µM)?
A: The viability, T/C was 29.4%.

Q: And the viability, T/C (second compound 1 µM, first compound 0.1 µM)?
A: Its viability, T/C is 28.5%.

Q: And the viability, T/C (second compound 1 µM, first compound 0.316 µM)?
A: Its viability, T/C is 28.7%.

Q: And the viability, T/C (second compound 1 µM, first compound 1 µM)?
A: The viability, T/C was 27.1%.

Q: And the viability, T/C (second compound 1 µM, first compound 3.16 µM)?
A: The viability, T/C was 26.9%.

Q: What about the viability, T/C (second compound 1 µM, first compound 10 µM) of the same compound?
A: Its viability, T/C is 27.8%.

Source: PubChem BioAssay AID1963977 (Molecular Pharmacology Branch, DTP, NCI, 2024)
